The record followed here is publication PMC9656482, “In Vitro and In Vivo Biological Activity of Ruthenium 1,10-Phenanthroline-5,6-dione Arene Complexes” (International Journal of Molecular Sciences, 2022).

Data set [1] has as its system A2780 cells. Kind of data set: Autophagy assay (flow cytometry). Type of data set: cell-based, human. As to conditions: A2780, 48 h, IC50 of JHOR11. Here is the method: To understand if the cytotoxic effect of the complex is correlated with autophagy, A2780 cells were exposed for 48 h to the IC50 of complex JHOR11. They were then incubated with an autophagic fluorescent dye (Abcam) that becomes highly fluorescent when incorporated into pre-autophagosomes, autophagosomes or autophagolysosomes. Cells were also incubated with DMSO 0.1% (v/v) for vehicle control, and with 1.5 μM rapamycin and 3.5 μM cisplatin as positive controls.
The fluorescence quantification and percentage of autophagic cells was performed on an Attune acoustic focusing flow cytometer and respective software (Thermo Fisher Scientific).

The test system of data set [2] is A2780 cells. Description: Cell cycle analysis (PI staining). Type of data set: cell-based, human. As to conditions: A2780 synchronized with thymidine; IC50 of JHOR11 or 0.1 µM doxorubicin; 5-32 h, relative to DMSO. Here is the method:
To understand if the complex also presents a cytostatic effect, the cell cycle of A2780 cells was analyzed by DNA staining with PI, after double synchronization with thymidine at the S phase.
The cell cycle analysis was performed by DNA staining with PI according to procedures previously described with few modifications. A2780 cells were seeded in 6-well plates in a cell density of 4 × 10^5 cells/well and the cell cycle was synchronized in the S-phase by double blocking with 2 mM thymidine. […] After 5 h, 9 h, 24 h or 32 h, cells were detached, fixed with 80% (v/v) ethanol, incubated with 50 mg/mL RNase A (NZYtech, Lisbon, Portugal) and stained with […] PI (Thermo Fisher Scientific). The fluorescence of each sample was analyzed in an Attune acoustic focusing cytometer and respective software (Thermo Fisher Scientific).

Data set [3] has as its system A2780 cells. Description: Senescence assay (beta-galactosidase fluorescence). Type of data set: cell-based, human. Conditions: A2780, 48 h, IC50 of JHOR11, relative to DMSO. The procedure: The senescence of A2780 cells after 48 h incubation with IC50 of JHOR11 was also analyzed to add more insights into the mechanism of action of the complex. Premature cellular senescence is an irreversible state of cell cycle arrest that occurs in response to intrinsic and extrinsic insults to the cell that induce DNA damage, oxidative stress, or nutrient depletion. The percentage of senescent cells was measured using the senescence assay kit (Abcam) that allows the quantification of the senescence-associated expression of beta-galactosidase activity by flow cytometry. […] [36].
The cell senescence analysis was performed using the Senescence assay kit (beta galactosidade fluorescence, Abcam, Cambridge, UK) according to the manufacturer’s instruction with few modifications. Briefly, A2780 cells were seeded in 24 well-plates to a final cell density of 4 × 10^5 cells/well. After 24 h incubation, to assure cell adhesion to the wells, the medium was replaced by fresh media supplemented with 0.1% (v/v) DMSO, for vector control, 3.5 µM cisplatin, 0.1 µM Doxorubicin, or IC50 JHOR11. […] Pelleted cells were washed with wash buffer, resuspended in the same buffer and the percentage of fluorescent cells in each sample was immediately measured in an Attune focusing flow cytometer and respective software (Thermo Fisher Scientific).

Data set [4] deals with normal human dermal fibroblasts. Kind of data set: Wound scratch assay. Type of data set: cell-based. As to conditions: 24 h, IC50 of the complex, versus vector control. Here is the method: Cell migration is an essential process for tumor progression, being one of the major events that leads to cancer metastasis. To determine if JHOR11 inhibits cell tumorigenicity, the cell migration ability was analyzed by the wound scratch assay. […] The measure of the wound scratch after 0 h and 24 h allows the determination of the migration ability of the cells.
For wound scratch assay normal human dermal fibroblasts were seeded on […] tissue plates in a cell density of 4 × 10^5 cells/plate and incubated at 37 °C, 5% (v/v), 99% (v/v) relative humidity until reach confluence. A sterile micropipette tip was then used to make a scratch on the confluent monolayer and medium was replaced by fresh medium supplemented with IC50 JHOR11 or 0.1% (v/v) DMSO, as vector control.

The test system of data set [5] is zebrafish embryos. Kind of data set: In vivo toxicity assessment using zebrafish embryos. Here is the method:
The toxicity of the JHOR10 and JHOR11 compounds was assayed in zebrafish embryos. There was a NOEC (No Observed Effect Concentration) in the case of JHOR11 of 80 µM (Table 2). The NOEC is the concentration used for the xenotransplantation experiments in order not to affect the normal development of the embryos and being able, in parallel, to assay the effect of the compound over the injected cells. Apart from that, the mortality assayed in the toxicity assays supports the concentration obtained in the NOEC, with a low mortality of the embryos when they are incubated with JHOR11 (Figure 13 and Figure 14).
Wild-type zebrafish were housed in 30 L tanks within a water recirculation system under controlled physicochemical conditions: pH 7–7.5, temperature 26 ± 2 °C, conductivity 600 µS/cm and light/dark photoperiod of 14/10 h. The adult fish were fed Gemma Micro 300 (Skretting) twice a day. Fertilized eggs were collected after natural spawning and stored in Petri dishes for 48 h until being injected, or 72 h until being exposed to different concentrations of ruthenium compounds.
At 72 h post-fertilization (hpf), the embryos were exposed to increasing concentrations of two ruthenium compounds to determine toxicological estimates: LC50 with no observed effect concentration (NOEC) and lowest observed effect concentration (LOEC). The acute toxicity assessment of the compounds was performed following the standards of the OECD Test Guideline Program.
The embryos were individually transferred to 96-well plates containing 100 µL of each desired concentration. The plates were then placed in an incubator with a temperature of 26 °C and a photoperiod of 14 h of light and 10 h of darkness. The duration of the experiment was 96 h, and observations were made every 24 h recording the four lethal effects indicated by the OECD: embryo coagulation, absence of somite formation, absence of separation of the yolk tail and absence of heartbeat. All compounds were dissolved with dimethylsulfoxide (DMSO) with a final concentration of 1%. In each test, seven concentrations were analyzed for each compound, these being: JHOR10 (10, 20, 30, 40, 50, 55, 60 µM) and JHOR11 (50, 80, 100, 140, 200, 300, 400 µM).
For the evaluation of toxicity, the mortality data were analyzed by probit analysis with the ToxRat software (ToxRat Solutions. 2003. ToxRat®. Software for the statistical analysis of biotests. Alsdorf, Germany).

For data set [6], the system named is BAX and BCL-2 protein expression in A2780 cells. As to conditions: A2780, 48 h, IC50 of JHOR11, normalized to DMSO control = 1.
Method: The ratio between BAX and BCL-2 protein expression indicates the level of susceptibility of the cell to the intrinsic apoptotic pathway [26, 27, 28]. The BAX and BCL-2 protein expression was quantified by Western blot analysis to calculate the apoptotic index of cells after 48 h incubation with IC50 of JHOR11, using the quantification of β-actin as the internal control and 0.1% (v/v) DMSO as the vehicle control (Figure 4).
The apoptotic index was determined by quantification of BAX and BCL-2 protein expression by Western blot, as previously described [18]. Briefly, 4 × 10^6 cells were seeded on T-flasks with 25 cm^2 for 24 h and then the medium was replaced by a fresh medium supplemented with IC50 JHOR11, 0.1% (v/v) DMSO (vector control) or 0.1 µM doxorubicin (positive control). After 48 h incubation, cells were detached with a cell scraper and BAX, BCL-2 and β-actin proteins were quantified in a PVDF membrane [18]. The apoptotic ratio BAX/BCL-2 was calculated after normalization of the BAX and BCL-2 band intensity with respective β-actin band intensity and to the values of the DMSO-treated sample, measured using ImageJ2 software [41].
[7] abbreviates: zebrafish embryos exposed from 72 hpf, 96 h.

Broadly, the LC50 is the concentration that kills 50% of the test population. Lower therefore signals greater toxicity.

Values joined by “and” are separate entries in the source; they are usually repeats but may differ in a detail not shown here. Identical values can stand only once.

Regarding `Cc1ccc(C(C)C)cc1.F[P-](F)(F)(F)(F)F.O=C1C(=O)c2cccnc2-c2ncccc21.[Cl][Ru+]` [JHOR11], the “percentage of cells with autophagic events” value in data set [1] is reported as 48.8 ± 7.5%. For the same molecule, the cell cycle effect entry in data set [2] was “slight increase in cells in G2/M phase”. The “percentage of senescent cells” value in data set [3] was “increased percentage of senescent cells”. Besides, in data set [4], the “percentage of regeneration of the wound scratch” value is reported as “no significant differences”. Further, in data set [5] (setting [7]), the LC50 is 225 µM; the “NOEC (No Observed Effect Concentration)” value is 80 µM and 80.00 µM. The “mortality of the embryos” value in data set [5] (zebrafish embryos incubated with compound) is on record as “low mortality”. The “apoptotic index (BAX/BCL-2 ratio)” value in data set [6] was “lower than 1”.
